According to ChEMBL document CHEMBL5634123, “Design and synthesis of 1H-benzo[d]imidazole selective HDAC6 inhibitors with potential therapy for multiple myeloma” (Eur J Med Chem, 2023):
Calls of active or inactive are those of the source. The calls are words filed in the database; no cut-off is given here.

Assays:
RPMI-8226 [1] = assay: Induction of cell cycle arrest at G1 phase in human RPMI-8226 cells at 2.5 uM incubated for 24 hrs by PI staining based flow cytometry (reference value: 19.2 %); type: functional
RPMI-8226 [2] = assay: Induction of cell cycle arrest at G1 phase in human RPMI-8226 cells at 0.1 uM incubated for 24 hrs by PI staining based flow cytometry (reference value: 19.2 %); type: functional
[3] = Clearance in mouse at 1 mg/kg, iv; type: ADME, organism-based; conditions: in vivo
Histone deacetylase 3 = Histone deacetylase 3 (Homo sapiens, UniProt O15379); assay: Inhibition of HDAC3 (unknown origin) preincubated for 10 mins followed by substrate addition by fluorescence based assay
[4] = Toxicity in Balb/c nude mouse xenografted with human RPMI-8226 cells assessed as adverse effect on kidney at 10 to 40 mg/kg, po qd for 21 days administered consecutively by H and E staining based analysis; type: organism-based; conditions: in vivo, 504 h, dose 10-40 mg/kg, time 21 day
[5] = Toxicity in Balb/c nude mouse xenografted with human RPMI-8226 cells assessed as adverse effect on lung at 10 to 40 mg/kg, po qd for 21 days administered consecutively by H and E staining based analysis; type: organism-based; conditions: in vivo, 504 h, dose 10-40 mg/kg, time 21 day
MDA-MB-468 = assay: cells; conditions: Homo sapiens, MDA-MB-468, 24 h
RPMI-8226 [6] = assay: Induction of cell cycle arrest at G2 phase in human RPMI-8226 cells at 0.1 uM incubated for 24 hrs by PI staining based flow cytometry (reference value: 18.3 %); type: functional
[7] = Toxicity in Balb/c nude mouse xenografted with human RPMI-8226 cells assessed as adverse effect on liver at 10 to 40 mg/kg, po qd for 21 days administered consecutively by H and E staining based analysis; type: organism-based; conditions: in vivo, 504 h, dose 10-40 mg/kg, time 21 day
[8] = Toxicity in Balb/c nude mouse xenografted with human RPMI-8226 cells assessed as adverse effect on spleen at 10 to 40 mg/kg, po qd for 21 days administered consecutively by H and E staining based analysis; type: organism-based; conditions: in vivo, 504 h, dose 10-40 mg/kg, time 21 day
[9] = Toxicity in Balb/c nude mouse xenografted with human RPMI-8226 cells assessed as adverse effect on heart at 10 to 40 mg/kg, po qd for 21 days administered consecutively by H and E staining based analysis; type: organism-based; conditions: in vivo, 504 h, dose 10-40 mg/kg, time 21 day
[10] = target: T1, Protein deacetylase HDAC6 (Homo sapiens) (UniProt Q9UBN7); assay: Inhibition of HDAC6 in human RPMI-8226 cells assessed as increase in Ac-alpha-tubulin expression at 0.5 to 2.5 uM incubated for 24 hrs by Western blot analysis; type: cell-based; conditions: dose 0.5-2.5 µM
T1 sequence (whole entry): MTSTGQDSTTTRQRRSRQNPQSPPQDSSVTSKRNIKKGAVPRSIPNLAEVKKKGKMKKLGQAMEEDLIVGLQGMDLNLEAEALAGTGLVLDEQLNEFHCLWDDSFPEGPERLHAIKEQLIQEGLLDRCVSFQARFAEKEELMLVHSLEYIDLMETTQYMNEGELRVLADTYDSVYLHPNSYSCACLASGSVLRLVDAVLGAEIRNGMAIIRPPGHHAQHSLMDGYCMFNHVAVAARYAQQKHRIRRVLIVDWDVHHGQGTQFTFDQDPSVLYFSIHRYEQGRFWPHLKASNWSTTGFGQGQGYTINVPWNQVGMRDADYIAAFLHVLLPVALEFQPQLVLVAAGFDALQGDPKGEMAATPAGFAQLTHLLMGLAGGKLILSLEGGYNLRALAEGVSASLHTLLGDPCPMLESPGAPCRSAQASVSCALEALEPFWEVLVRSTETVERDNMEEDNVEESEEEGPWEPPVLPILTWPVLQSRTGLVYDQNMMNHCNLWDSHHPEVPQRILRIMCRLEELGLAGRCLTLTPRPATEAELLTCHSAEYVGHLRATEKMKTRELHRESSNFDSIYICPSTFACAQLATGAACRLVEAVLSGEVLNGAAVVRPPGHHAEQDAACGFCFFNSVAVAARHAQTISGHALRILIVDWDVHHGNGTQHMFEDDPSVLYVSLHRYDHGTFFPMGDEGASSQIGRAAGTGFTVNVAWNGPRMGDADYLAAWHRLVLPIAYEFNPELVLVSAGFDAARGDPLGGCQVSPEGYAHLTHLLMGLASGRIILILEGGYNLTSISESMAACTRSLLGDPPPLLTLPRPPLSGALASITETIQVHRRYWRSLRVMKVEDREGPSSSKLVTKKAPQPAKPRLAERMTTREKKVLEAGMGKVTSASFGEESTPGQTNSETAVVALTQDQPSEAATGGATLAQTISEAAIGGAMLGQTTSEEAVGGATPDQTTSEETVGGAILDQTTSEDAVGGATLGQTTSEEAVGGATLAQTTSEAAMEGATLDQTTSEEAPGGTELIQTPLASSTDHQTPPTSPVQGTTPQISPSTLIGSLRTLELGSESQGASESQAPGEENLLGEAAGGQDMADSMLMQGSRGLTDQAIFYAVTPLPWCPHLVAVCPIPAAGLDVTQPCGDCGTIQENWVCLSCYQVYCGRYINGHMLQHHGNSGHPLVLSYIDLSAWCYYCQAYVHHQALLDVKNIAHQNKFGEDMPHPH

[11] = target: T1, Protein deacetylase HDAC6 (Homo sapiens); assay: Inhibition of HDAC6 in human RPMI-8226 cells assessed as increase in Ac-H3 expression at 2.5 uM incubated for 24 hrs by Western blot analysis; type: cell-based
RPMI-8226 [12] = assay: Induction of cell cycle arrest at S phase in human RPMI-8226 cells at 0.5 uM incubated for 24 hrs by PI staining based flow cytometry (reference value: 58.5 %); type: functional
[13] = Toxicity in Balb/c nude mouse xenografted with human RPMI-8226 cells assessed as adverse effect on serum total protein level at 10 to 40 mg/kg, po qd for 21 days administered consecutively; type: organism-based; conditions: in vivo, 504 h, dose 10-40 mg/kg, time 21 day
RPMI-8226 [14] = assay: Induction of apoptosis in human RPMI-8226 cells assessed as necrotic cells at 2.5 uM incubated for 24 hrs by Annexin V-FITC/PI staining based flow cytometry (reference value: 0.90 %); type: functional
RPMI-8226 [15] = assay: Induction of apoptosis in human RPMI-8226 cells assessed as viable cells at 0.5 uM incubated for 24 hrs by Annexin V-FITC/PI staining based flow cytometry (reference value: 90.98 %); type: functional; conditions: read-out: Activity
HCT-116 = assay: Cytotoxicity against human HCT-116 cells assessed as inhibition of cell viability incubated for 24 hrs by CCK8 assay; type: functional, cell-based; conditions: HCT-116, 24 h
[16] = Toxicity in Balb/c nude mouse xenografted with human RPMI-8226 cells assessed as adverse effect on serum uric acid level at 10 to 40 mg/kg, po qd for 21 days administered consecutively; type: organism-based; conditions: in vivo, 504 h, dose 10-40 mg/kg, time 21 day
SGC-7901 = assay: Cytotoxicity against human SGC-7901 cells assessed as inhibition of cell viability incubated for 24 hrs by CCK8 assay; type: functional, cell-based; conditions: SGC-7901, 24 h
RPMI-8226 [17] = assay: Induction of apoptosis in human RPMI-8226 cells assessed as early apoptotic cells at 0.5 uM incubated for 24 hrs by Annexin V-FITC/PI staining based flow cytometry (reference value: 5.34 %); type: functional
[18] = AUC (0 to t) in mouse at 10 mg/kg, po; type: ADME, organism-based; conditions: in vivo

Chain of Histone deacetylase 3 (O15379 whole entry): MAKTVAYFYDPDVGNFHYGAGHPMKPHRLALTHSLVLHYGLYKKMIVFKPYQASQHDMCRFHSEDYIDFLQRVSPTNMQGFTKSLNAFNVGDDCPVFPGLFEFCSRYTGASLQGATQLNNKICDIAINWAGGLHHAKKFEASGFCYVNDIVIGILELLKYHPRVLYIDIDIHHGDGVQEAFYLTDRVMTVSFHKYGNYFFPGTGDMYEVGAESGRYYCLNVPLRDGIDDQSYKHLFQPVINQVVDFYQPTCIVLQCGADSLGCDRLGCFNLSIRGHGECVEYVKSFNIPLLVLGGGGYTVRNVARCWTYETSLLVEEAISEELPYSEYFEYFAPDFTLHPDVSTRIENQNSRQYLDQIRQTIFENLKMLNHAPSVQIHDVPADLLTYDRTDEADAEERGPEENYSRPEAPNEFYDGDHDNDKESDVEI

## Cn1c([C@@H](Cc2ccccc2)NCc2ccccc2)nc2cc(C(=O)NO)ccc21
RPMI-8226 [1]
  Activity: 26.8%
RPMI-8226 [2]
  Activity: 18.2%
[3]
  clearance: 82.9 mL/min/kg
Histone deacetylase 3
  IC50: 1.84 µM
[4]
  Activity: Non-Toxic
[5]
  Activity: Non-Toxic
MDA-MB-468
  IC50: > 50 µM
RPMI-8226 [6]
  Activity: 21.1%
[7]
  Activity: Non-Toxic
[8]
  Activity: Non-Toxic
[9]
  Activity: Non-Toxic
[10]
  inhibition: Active
[11]
  inhibition: Active
RPMI-8226 [12]
  Activity: 43.3%
[13]
  Activity: Non-Toxic
RPMI-8226 [14]
  Activity: 0.26%
RPMI-8226 [15]
  viability at 0.5 µM: 81.2%
HCT-116
  IC50: 15.2 µM
[16]
  Activity: Non-Toxic
SGC-7901
  IC50: > 50 µM
RPMI-8226 [17]
  Activity: 14.04%
[18]
  AUC(0-t): 52.1 ng·h/mL
